The text below walks through data of US20220241266A1, “COMPOSITIONS AND METHODS USING TRIGONELLINE AND HIGH PROTEIN FOR PREVENTING OR TREATING CONDITIONS OR DISORDERS IN SKELETAL MUSCLE” (SOCIETE DES PRODUITS NESTLE S.A., priority 2019, published 2022).

The test system of experiment [1] is C. elegans. Conditions: 1 mM, chronic exposure from Day 1 adulthood. As to the method: Worm lifespan tests were performed using about 100 animals per condition and scored manually every other day. Trigonelline treatment and experimental measurements were started at Day 1 of wild type N2 worm adulthood, in a regimen of chronic exposure till experiments termination.

Experiment [2] deals with C. elegans. Conditions: 1 mM, day 8 and day 11 old worms, vs control. An excerpt:
45 to 60 worms per condition were manually scored for mobility after poking. Worms that were unable to respond to any repeated stimulation were scored as dead. […] Trigonelline treatment and experimental measurements were started at Day 1 of wild type N2 worm adulthood, in a regimen of chronic exposure till experiments termination.

Experiment [3] concerns C. elegans. The note with it: 1 mM, vs control. As for the experimental part: C. elegans mobility test was performed using the Movement Tracker software (Mouchiroud, L. et al. Curr Protoc Neurosci 77, 8.37.1-8.37.21 (2016)). The experiments were repeated at least twice. Trigonelline treatment and experimental measurements were started at Day 1 of wild type N2 worm adulthood, in a regimen of chronic exposure till experiments termination.

Experiment [4] has as its system RW1596 (myo-3p::GFP) worms. Conditions: 1 mM trigonelline chloride, 11 day old worms vs age matched control. As for the experimental part: RW1596 (myo-3p::GFP) worms were collected at Day 1 (young adults) and at Day 11 (aged animals) for muscle integrity assessment. Worms were immobilized with tetramisole and analyzed by confocal microscopy, to assess the muscle fibers morphology shown by GFP fluorescence imaging. Trigonelline treatment with 1 mM trigonelline chloride and experimental measurements were started at Day 1 of wild type N2 worm adulthood, in a regimen of chronic exposure till experiments termination.

Experiment [5] deals with C. elegans. The note with it: 1 mM trigonelline chloride, day 8 old worms, vs control. As to the method: Absolute quantification of the mtDNA copy number in wild type N2 worms was performed by real-time PCR. Relative values for nduo-1, and act-1 were compared within each sample to generate a ratio representing the relative level of mitochondrial DNA per nuclear genome. The average of at least two technical repeats was used for each biological data point. Each experiment was performed on at least ten independent biological samples (individual worms). Trigonelline treatment with 1 mM trigonelline chloride and experimental measurements were started at Day 1 of wild type N2 worm adulthood, in a regimen of chronic exposure till experiments termination.

In experiment [6] the test system is Human Skeletal Muscle Myotubes (HSMM). The note with it: 6 h, 500 μm. As to the method: Human primary myoblasts from two different donors were seeded in 6 well plates at a density of 200,000 cells per well in skeletal muscle growth medium (SKM-M, AMSbio). After one day, the differentiation was induced by a medium change for 4 days using differentiation culture medium (Gibco No. 31330-028). Cells were treated with isotopically labelled trigonelline (^13C carbonyl; 3^2H on methyl) for 6 h.
Cell extracts were separated on a Vanquish UHPLC+focused LC system (Thermo Scientific) with a hydrophilic liquid chromatography (HILIC) iHILIC-Fusion(P) column (Hilicon) carrying the dimensions 150×2.1 mm, 5 μm and a guard column (iHILIC-fusion(P), Hilicon) in front. The separation of metabolites was achieved by applying a linear solvent gradient in normal phase at 0.25 mL/min flow rate and 35° C. of temperature. As mobile phase, solvent A was water with 10 mM ammonium acetate and 0.04% (v/v) ammonium hydroxide, pH ˜9.3, and solvent B was acetonitrile.
The eluting metabolites were analyzed with an Orbitrap Fusion Lumos mass spectrometer (Thermo Scientific) with a heated electrospray ionization (H-ESI) source in positive and negative mode at a resolution of 60,000 at m/z of 200. Instrument control and data analysis were conducted using Xcalibur (Thermo Scientific).

For a further experiment, the system named is C57BL/6JRj male mice. The experiment can be described thus: Liver NAD+ in mice after oral gavage. The experiment is classed as in vivo. Conditions: equimolar of 300 mg/kg trigonelline, 120 minutes. As to the method: FIG. 5—Liver NAD^+ levels of C57BL/6JRj mice measured 120 minutes after administration of 300 mg/kg trigonelline chloride or an equimolar amount of fenugreek seed extract by oral gavage
10 weeks C57BL/6JRj male mice received trigonelline (sigma #T5509) or fenugreek seed extract enriched in trigonelline (40.45% trigonelline) by oral gavage (equimolar of 300 mg/kg trigonelline, n=8/group). After 120 minutes treatment, the liver was harvested and flash frozen in liquid nitrogen. NAD^+ was measured in liver using an enzymatic method adapted from Dall, M., et al., Mol Cell Endocrinol, 2018. 473: p. 245-256.

Experiment [7] concerns Human Skeletal Muscle Myotubes (HSMM). The experiment can be described thus: Colorimetric NAD+ quantification in differentiated human primary myoblasts. The experiment is classed as cell-based. Conditions: 16 h, different doses. As for the experimental part: After one day, the differentiation is induced by a medium change for 4 days. Cells were treated with synthetic trigonelline monohydrate (FIG. 4A) or with Fenugreek seed extract enriched in trigonelline containing 40.45% trigonelline (FIG. 4B) for 16 h at difference doses. NAD^+ was measured using colorimetric NAD^+ quantification assay (Biovision NAD^+/NADH Quantitation Colorimetric Kit #k337-100).

`C[n+]1cccc(C(=O)O)c1.[Cl-]` [trigonelline chloride] displayed an increase of lifespan in the experiment on C. elegans [1] of 21%. For the same compound, in the experiment on C. elegans [2], the “stimulated mobility score (worms responsive to a physical stimulus)” value is on record as “more responsive to a physical stimulus than the control”. Moreover, the “distance travelled during spontaneous mobility assay” value in the experiment with C. elegans [3] (advanced aging phase) is “significantly increased”. The “mean speed during spontaneous mobility assay” value in the experiment on C. elegans [3] (from day 1 adulthood) is on record as “increased the mean speed compared to the control”.
Take `C[n+]1cccc(C(=O)[O-])c1` [trigonelline, 1-methylpyridin-1-ium-3-carboxylate]: the “myofibrillar structure (GFP-tagged myosin)” value in experiment [4] is recorded as “improved more organized myofibrillar structure”. Besides, the “ratio of mitochondrial-encoded gene (nduo-1) to nuclear-encoded gene (act-1)” value in the experiment on C. elegans [5] is “higher than in the control group”. Also, the “NAD+ relative concentration relative to control (LC-MS)” value in experiment [6] (HSMM from 2 donors) is listed as “enhancement of NAD+”.
Take `[2H]C([2H])([2H])[n+]1cccc([13C](=O)[O-])c1` [labelled trigonelline]: in experiment [6] (HSMM, vs naturally occurring NAD+ control), the “relative abundance of labelled NAD+ (M+1)” value is “increase in relative abundance of labelled NAD+ (M+1)”.
As for `C[n+]1cccc(C(=O)[O-])c1` [chemically synthesized trigonelline, trigonelline monohydrate], in the experiment on C57BL/6JRj male mice, the “NAD+ content in the liver compared to the control” value is on record as “significant increase in NAD^+ content in the liver”. In addition, the “NAD+ content compared to the control” value in experiment [7] is reported as “significant increase in NAD^+ content”.
